Data taken from patent US9658208B2, “Methods and G proteins for screening and identifying ligands of G protein-coupled receptors” (Fred Hutchinson Cancer Research Center, priority 2011, dated 2017).

Test system: odorant receptor (OR) that recognizes vanillin and eugenol (Rho20-eugenol receptor)
Assay: CRE-SEAP reporter gene assay, Gαs-coupled odorant receptor
Assay type: cell-based
Conditions: HEK-293 cells, 500 uM eugenol, 48 hours
Excerpt: A high throughput screening assay was investigated for Gαs-coupled GPCRs based on the CRE-SEAP reporter gene construct, in which five tandem cAMP response elements […] lie upstream of a gene encoding secreted alkaline phosphatase (SEAP) (Durocher et al., Anal Biochem 284: 316-326 (2000)). To ensure the general utility of the CRE-SEAP reporter gene construct for the detection of Gαs-coupled GPCR activation, HEK-293 cells were cotransfected with the CRE-SEAP construct together with expression vectors encoding either a β2-adrenergic receptor or an odorant receptor (OR) that recognizes vanillin and eugenol. Both receptors are GPCRs that couple to Gαs subunits. The HEK-293 cells expressing the β2-adrenergic receptor were grown for 48 hours in the presence or absence of 10 uM isoproterenol. The HEK-293 cells expressing the OR were grown for 48 hours in the presence of 500 uM eugenol. After growing in the presence of the ligands, the cells were assayed for SEAP activity using a fluorescent alkaline phosphatase substrate and a fluorescence plate reader. […]
Following transfection, the cells were maintained for 48 hours in 200 ul serum free media containing either 10 uM isoproterenol (Sigma) or 500 uM eugenol (Sigma). […] Fluorescence was then measured using a CytoFluor 4000 multi well plate reader (Applied Biosystems).

- SEAP activity: increase in SEAP activity
Compound: C=CCc1ccc(O)c(OC)c1 [eugenol]
